According to patent publication US20110028504A1, “Formulation of radioprotective alpha beta unsaturated aryl sulfones” (ONCONOVA THERAPEUTICS, INC., priority 2005, published 2011):

How the values were obtained:
Format in all cases: physicochemical
[1] = pH solubility testing in McIlvaine type buffer; settings: thermodynamic from solid, read-out: Observed Solubility (C5)
Experimental: The solubility of ON.1210.Na salt is tested in McIlvaine type buffer with 0.1 M ionic strength. The buffers are prepared using the recipe mentioned in Table 17 The final pH is adjusted using 0.1N sodium hydroxide or 0.1N hydrochloric acid until the pH is within ±0.1 pH units of the target pH. The pKa of the drug calculated from pH-solubility study is depicted in Table 19. The solubility of the ON.1210.Na salt is tested in a McIlvaine type buffer with 0.1 M ionic strength. The buffers are prepared using the recipe mentioned in Table 16 using various volumes of 0.15 M citric acid monohydrate, and 0.2 M sodium phosphate dibasic, 12 hydrate. The final pH is adjusted using 0.1N sodium hydroxide or 0.1N hydrochloric acid until the pH is within ±0.1 pH units of the target pH. The samples for the pH solubility study are prepared by adding 10-20 mg of ON.1210.Na salt to a 4 mL vial. Then 1 mL of the appropriate pH buffer is added to the vial. The solution is mixed on a vortex genie for approximately 30 seconds. If the solution looks clear, additional drug is added. No additional drug is added to solutions which appear to be clear at a concentration of greater than 50 mg/mL. The study is done in duplicate. Once the solutions are prepared, the initial pH of the samples are measured. The solutions are then protected from light, and placed on a shaker. The solutions are agitated for 24 to 96 hours at ambient conditions. The vials are then removed from the orbital shaker, and the final pH of the solutions is measured for each sample. The solutions are then filtered, and analyzed by HPLC.

[2] = Octanol-water partition coefficient; settings: 25° C., n-octanol and HPLC water, triplicate; pH of the aqueous phase 8.1
Experimental: The octanol-water partition coefficient of the drug is determined at 25° C. Equal volumes (10 ml) saturated solution of ON.1210.Na in n-octanol and HPLC water are equilibrated at 25° C. in a shaking water bath for 48 hours. The pH of the aqueous phase is also determined. At a predetermined time, a known volume of both the organic and aqueous phase is collected via a filtered needle. Subsequently, the concentration of ON.1210.Na is determined by HPLC after adequate dilution.
The octanol-water partition coefficient of the drug is determined at 25° C. using equal volumes (10 ml) of saturated solution of ON.1210.Na in n-octanol and HPLC water. Similarly, the partition coefficient is determined using simulated gastric and intestinal fluid without enzymes. The octanol-water partition coefficient is determined using the following equation: […]

[3] = Solid-state stability at 75° C.
Experimental: The stability of ON.1210.Na in the solid state is determined by exposing the drug at 75° C. over a prolonged time. The sample is crimped in a 10 mL injection vial and kept at the above temperature. The sample is collected after 15 days and one month and reconstituted with diluting solution and its concentration is determined by HPLC. Appearance of any additional peak in the chromatogram is also noted. A control sample is represented by ON.1210.Na not exposed to 75° C. and reconstituted to a known concentration with diluting solution.

[4] = Saturated solubility in different solvent systems
[5] = Forced degradation studies (HPLC)
Experimental: In order to establish the specificity of this assay procedure several forced degradation studies were conducted as follows:
The ON.1210.Na sample is prepared in HPLC grade water at a concentration of 200 μg/mL. All the peaks detected in the chromatogram at time zero are noted with their corresponding retention time and absolute peak areas. The solution is crimped into a 5 mL glass vial and autoclaved. After autoclaving, the sample is filtered through a 0.1μ filter and 20 μL of the filtered sample is analyzed. The absolute peak area of the peak after autoclaving and appearance of any additional peaks due to possible degradation is shown in Table 9.
One ml of the 500 μg/mL standard solution is mixed with 1 mL of 0.1 N HCl. The sample is cloudy in appearance and filtered prior to HPLC analysis. All the peaks detected in the chromatogram at time zero are noted with their corresponding retention time and absolute peak areas. The solution is crimped into a 5 mL glass vial and autoclaved. After autoclaving, the sample is filtered through a 0.1μ filter and […] of the filtered sample is analyzed by HPLC. The absolute peak areas of the peak after autoclaving, and appearance of any other peaks due to possible degradation are noted.
One ml of the 500 μg/mL standard solution is mixed with 1 mL of 0.1 N NaOH. The sample is clear in appearance. All the peaks detected in the chromatogram at time zero are noted with their corresponding retention time and absolute peak area. The solution is crimped into a 5 mL glass vial and autoclaved. After autoclaving, the sample is filtered through a 0.1μ filter and 20 μL of the filtered sample is analyzed. The absolute peak area of the peaks after autoclaving and appearance of any other peaks due to possible degradation are noted.
A solid drug sample (ON1210), after autoclaving in a crimped vial, is also evaluated for any degradation using the developed HPLC method. The sample, after autoclaving, is used to make a standard solution of 400 μg/mL and injected onto HPLC.
In this study, 30% of the hydrogen peroxide is diluted to 3% (v/v) with water. One ml of the 500 μg/mL standard solution is mixed with 1 mL of 3% hydrogen peroxide; then incubated at 50° C. over a period of two hours. All the peaks detected in the chromatogram at different time points are noted with their corresponding retention time and absolute peak areas. The chromatograms are run for 30 minute periods.

[6] = Determination of pKa from saturated solubility at different pH
Experimental: The pKa of the weakly acidic drug is determined from pH-solubility data using the equation provided below.
Where Cs=observed solubility and C0=intrinsic solubility of the compound,
Since the drug is weakly acidic, its intrinsic solubility is assumed to be the solubility at a very low pH (pH=4) where the contribution due to ionization is minimal.

## O=C([O-])c1ccc(/C=C/S(=O)(=O)Cc2ccc(Cl)cc2)cc1.[Na+] [ON.1210.Na, (E)-4-Carboxystyryl-4-chlorobenzylsulfone, Sodium Salt]
[1]; pH 4, aqueous buffer
  Solubility: 0.154 µg/mL
[1]; pH 5, aqueous buffer
  Solubility: 37.9 µg/mL
[1]; pH 6, aqueous buffer
  Solubility: 715 µg/mL
[1]; pH 7.4, aqueous buffer
  Solubility: 11100 µg/mL
[1]; pH 8, aqueous buffer
  Solubility: 16800 µg/mL
[1]; pH 9, aqueous buffer
  Solubility: 23300 µg/mL
[2]
  octanol:water partition coefficient: 1.28-2.87
[3]
  accelerated solid-state stability of the bulk drug substance: no evidence of degradation
[4]; 0.25% Tween 80 in phosphate buffer, pH of solution 8.45
  Solubility: 9500 µg/mL
[4]; 0.5% Tween 80 in phosphate buffer, pH of solution 8.41
  Solubility: 9800 µg/mL
[4]; 1% Tween 80 in phosphate buffer, pH of solution 8.45
  Solubility: 8900 µg/mL
[4]; 2% Tween 80 in phosphate buffer, pH of solution 8.39
  Solubility: 9700 µg/mL
[4]; 2% tween 80 in water, pH of solution 8.78
  Solubility: 9000 µg/mL
[4]; 10% cyclodextran, 24 hours of equilibration, pH of solution 8.14
  Solubility: 46000 µg/mL
[4]; 10% cyclodextran, 48 hours of equilibration, pH of solution 8.41
  Solubility: 41000 µg/mL
[4]; 50% PEG400:water, pH of solution 7.53
  Solubility: 40000 µg/mL
[4]; 50:50 PEG400:ethanol, pH of solution 8.46
  Solubility: 37000 µg/mL
[4]; PEG300 (IP10 g/kg), pH of solution 8.21
  Solubility: 52040 µg/mL
[5]; 200 μg/mL in water
  stability of the aqueous solution on autoclaving: stable under autoclaving conditions
[5]; 0.05N NaOH, autoclaving
  degradation under alkaline condition: Significantly more degradation is present under alkaline condition
[5]; in presence of strong acid (0.05N HCl)
  degradation upon autoclaving: less than 10%
[5]; solid drug autoclaved in a crimped vial, then 400 μg/mL by HPLC
  stability of the solid on autoclaving: stable under the autoclaving conditions
[6]; aqueous buffer, thermodynamic from solid, assumed to be the solubility at pH 4, read-out: intrinsic solubility
  Solubility: 0.154 µg/mL
[6]; calculated from solubility at pH 5
  pKa: 2.61
[6]; calculated from solubility at pH 6
  pKa: 2.33
[6]; calculated from solubility at pH 7.4
  pKa: 2.54
[6]; calculated from solubility at pH 8
  pKa: 2.96
[6]; calculated from solubility at pH 9
  pKa: 3.82
